What all share (assay type): in vivo, human
Experiment [1] has as its system sweet taste. Description: Comparisons of taste quality and intensity, solutions in water (Example 12, Table I). The note with it: for Other taste attributes: in vivo. The text has this:
Sweetness is rapid and fades quickly on rinsing of the mouth.

Experiment [2] has as its system sweet taste. Description: Structure activity example, tasting of analogues (Example 11). The note with it: when tasted. The text has this:
During our invention process, we observed repeatedly that a small structural difference can cause dramatic change in the taste. For example, compound N-(2-methylcyclohexyl)-2,3,4,5,6-pentafluoro-benzamide is very sweet; moving the methyl group to the 4-position render the resulting N-(4-methylcyclohexyl)-2,3,4,5,6-pentafluoro-benzamide bitter; moving the methyl group to nitrogen render the resulting N-cyclohexyl-2,3,4,5,6-pentafluoro-N-methyl-benzamide tasteless.
There is however an underlying theme, that being that an amide functionality is important.

Experiment [3] relates to sweet taste. Description: Sweetness enhancement of an 8 brix beverage, trained technical panel (Example 14). Conditions: 4 ppm in 8 brix beverage; for sweet intensity rating: ten point scale, nine most sweetness, zero no sweetness. How it is done:
An 8 brix, the measurement of the mass ratio of dissolved sugar in a liquid, beverage was prepared to evaluate two sweeteners, 2,3,5,6-tetrafluoro-4-methyl-N-(2-methylcyclohexyl)benzamide-(sweetener A) and N-(2-methylcyclohexyl)-2,3,4,5,6 pentafluoro-benzamide)—(sweetener B). The objective was to determine if the sweeteners enhanced an 8 brix beverage to make it taste more similar to a 10 brix beverage. There were four samples evaluated an 8 brix beverage blank, sweetener A in 8 brix beverage, sweetener B in 8 brix beverage and a 10 brix beverage blank. Both the sweeteners were evaluated at 4 ppm. The beverage samples were evaluated by a trained technical panel. The panel evaluated the sweetness profile and the sweet intensity. The intensity was rated on a ten point scale with nine being the most sweetness and zero having no sweetness. […] The sweet intensity ratings were as follows (see Table 2) sample A rated 6, sample B rated 7, sample C rated 9 and sample D rated 9.

Experiment [4] relates to sweet taste. The experiment is described as follows: Sweetener blends with Ace-K or Sucralose, trained technical panel (Example 16). Conditions: for overall group rating: scale 1-9, 9 the best; for blend rating: scale 1 to 9. How it is done: A comparison of the synergistic effects the Benzamide, 2,3,4,5,6-Pentafluoro-N-(2-methylcyclohexyl)—(sweetener A) in combination with acesulfame-k, herein referred to as Ace-K and Sucralose was compared with the effects of Benzamide, 2,3,5,6-tetrafluoro-4-methyl-N-(2-methylcyclohexyl)—(sweetener B) in combination with the same commercial sweeteners. The samples were evaluated by a trained technical panel. The first sample was Ace-K at 100 ppm.
A similar evaluation with done with Sucralose as the commercial sweetener. An evaluation of Sucralose at 60 ppm was done in plain water. […] A comparison of the synergistic effects of sweetener A at 3 ppm in combination with Sucralose at 60 ppm was evaluated against sweetener B in the same combination. […] The blends were evaluated on a scale for 1 to 9.

Experiment [5] concerns sweet taste. The experiment is described as follows: Cola beverage containing Aspartame, trained technical panel (Example 15). The note with it: for sweetness profile rating: scale 0-9, 9 the best. Here is the method: The sweeteners Benzamide, 2,3,5,6-[…]-4-methyl-N-(2-methylcyclohexyl)—(sweetener A) and Benzamide, 2,3,4,5,6-pentafluoro-N-(2-methylcyclohexyl)—(sweetener B) were both evaluated in a cola beverage that contained Aspartame. The purpose of this experiment was to evaluate the sweeteners profile in a sweetener blend. There were three separate samples evaluated, see Table 3. The samples were evaluated by a trained technical panel. The sweetness profile was rated on a scale from 0-9, with 0 being the worst and 9 the best. The first sample, Sample A, containing only aspartame at 300 ppm was rated a 4. […] The second sample, Sample B, contained Aspartame at 300 ppm and sweetener A at 3 ppm. […] The rating for sample B was a 9 for sweetness. The third sample, sample C, contained Aspartame at 300 ppm and sweetener B at 3 ppm.

Experiment [6] deals with sweet taste. The experiment is described as follows: Comparison of sweetness at 5 ppm in plain water (Example 13). Here is the method: Two molecules were compared to each other based on sweetness. Both molecules were evaluated at 5 ppm in plain water.
The subject of experiment [7] is sweet taste. Description: Sweetness in muffins, trained technical panel (second Example 14). The note with it: 10 ppm in muffin; for sweetness intensity rating: scale 0-9, 9 most sweetness. How it is done:
The sweeteners 2,3,5,6-tetrafluoro-4-methyl-N-(2-methylcyclohexyl)benzamide (sweetener A) and N-(2-methylcyclohexyl)-2,3,4,5,6 pentafluoro-benzamide -(sweetener B) were both evaluated in muffins. They were evaluated along with a blank muffin sample. Both sweeteners were evaluated at 10 ppm in the muffin. The samples were evaluated by a trained technical panel. They were asked to evaluate the profile and to give a rating between 0-9 on the sweetness intensity. The rating scale ranged from zero for no sweetness to 9 for the most sweetness. […] The samples were rating on sweet intensity (see Table 3). The samples ratings were as follows; sample A rated 5, sample B rated 6, sample C rated 8.

Setting [8] is: 3 ppm in combination with Ace-K at 100 ppm.
Where [9] appears, read: 3 ppm in combination with Sucralose at 60 ppm.
Setting [10] is: 3 ppm with Aspartame 300 ppm in cola beverage.
Where [11] appears, read: Aspartame 300 ppm only in cola beverage.

Where a SMILES comes first, the peptide text is derived from it.

In the experiment with sweet taste [1], `O=C(N[C@H]1CCCc2ccccc21)c1ccoc1` (single isomer, unassigned) [1S isomer, reference compound] had an Other taste attributes of 1S isomer is tasteless.

Take `CC1CCCCC1OC(=O)c1c(F)c(F)c(F)c(F)c1F` (stereo not shown) [2,3,4,5,6-pentafluorobenzoic acid 2-methylcyclohexyl ester]: the taste result in the experiment on sweet taste [2] is “burning sensation”.

As for `Cc1c(F)c(F)c(C(=O)NC(C)C(C)C)c(F)c1F` (stereo not shown) [2,3,5,6-tetrafluoro-4-methyl-N-(1,2-Dimethyl-propyl)benzamide, reference compound], the Other taste attributes result in the experiment on sweet taste [1] is listed as “Clean”.

Consider `Cc1c(F)c(F)c(C(=O)NC2CCCCC2C)c(F)c1F` (stereo not shown) [2,3,5,6-tetrafluoro-4-methyl-N-(2-methylcyclohexyl)benzamide], for which, in the experiment on sweet taste [3], the sweetness profile comments result is “sour and slightly sweeter than the 8 brix blank”; the sweet intensity rating was 7. In the experiment with sweet taste [4] (setting [8]), the taste comments result was “delayed sweetness, astringency, not as strong a sweetness as the combination with sweetener A” and the overall group rating is 7. For the same compound, in the experiment on sweet taste [4] (setting [9]), the taste comments entry was “not as sweet as the combination with sweetener A, delayed sweetness” and the blend rating came out at 7. For the same compound, in the experiment with sweet taste [5] (setting [10]), the sweetness comments entry is “sweetness was well rounded, lingered, and gave mouthfeel”; the sweetness profile rating worked out at 9. The taste description entry in the experiment with sweet taste [6] was “mild vegetative, green and very bitter with some sugary notes”. In the experiment with sweet taste [7], the profile description result is given as “slightly sweet, not much difference in profile to the blank muffin sample” and the sweetness intensity rating is reported as 6.

Turning to `CC1=CC(=O)[N-]S(=O)(=O)O1.[K+]` [Ace-K, acesulfame-k], the taste comments entry in the experiment with sweet taste [4] (Ace-K at 100 ppm alone) was “delayed sweetness, some off notes, astringent and bitter”.

For `COC(=O)[C@H](Cc1ccccc1)NC(=O)[C@@H](N)CC(=O)O` [Aspartame] (H-Asp-Phe-OMe), in the experiment with sweet taste [5] (setting [11]), the sweetness comments entry is “sweetness in the beverage spiked and then disappeared”; the sweetness profile rating was 4.

As to `Cc1c(F)c(F)c(C(=O)N[C@H](C)C2CCCCC2)c(F)c1F` [Compound 40, (R)-N-1-cyclohexylethyl-2,3,5,6-tetrafluoro-4-methyl-benzamide], the Other taste attributes entry in the experiment with sweet taste [1] is “Bitter at 20 ppm”. Besides, in the experiment on sweet taste [1] (sweetness onset and duration relative to sucrose), the Profile entry is listed as “Poor sweet taste profile”.

With `CC(C)C(C)NC(=O)c1c(F)c(F)c(F)c(F)c1F` (stereo not shown) [Compound 53, N-(1,2-dimethylpropyl)-2,3,4,5,6-pentafluoro-benzamide], in the experiment on sweet taste [1], the Other taste attributes entry is recorded as “Clean”.

In the case of `Cc1cc(C)c(C(=O)NC(C)C(C)(C)C)c(C)c1` (stereo not shown) [Example 2, 2,4,6-trimethyl-N-(1,2,2-trimethylpropyl)-benzamide], the Other taste attributes result in the experiment with sweet taste [1] was “Clean”.

Turning to `CC1CCCCC1NC(=O)c1c(F)c(F)c(F)c(F)c1F` (stereo not shown) [Example 6, N-(2-methylcyclohexyl)-2,3,4,5,6-pentafluoro-benzamide], in the experiment on sweet taste [2], the taste entry is reported as “very sweet”. In addition, in the experiment with sweet taste [3], the sweetness profile comments entry is “sweeter, more mouthwatering, had a slight astringent aftertaste and had a similar sweetness profile to the 10 brix beverage”; the sweet intensity rating turned out to be 9. Also, in the experiment with sweet taste [1] (1 ppm in water), the “equal in sweetness to sucrose” value is 1-2 % sucrose and the taste description result is “sweetness is not immediate but builds after a few seconds but is very clean, lacking bitterness, off-taste or negative attribute”. Also, in the experiment with sweet taste [1] (4% sucrose plus 1 ppm in water), the “rated as sweet as sucrose” value came out at 8 % sucrose; the taste description result is “longer lasting and considered to be quite acceptable sweet character lacking bitterness”. Besides, in the experiment on sweet taste [1] (4% sucrose plus 5 ppm in water), the taste description result was “too sweet and too long lasting”. In addition, in the experiment with sweet taste [1] (5 ppm in water), the “equal in strength to sucrose” value was 4-6 % sucrose; the “sweet character lasts longer than sucrose” value is “up to 10 times longer”; the taste description entry is recorded as “sweetness is not immediate but is very clean, lacking bitterness, off-taste or negative attribute”. The Other taste attributes result in the experiment with sweet taste [1] is reported as “Clean”. Moreover, the “effect in combination with sucrose” value in the experiment with sweet taste [1] (low concentrations <4 ppm) is “synergistic effect with sucrose”. Besides, in the experiment with sweet taste [4] (setting [8]), the taste comments result was “strong sweetness upfront, bitter, enhanced bitterness in combination” and the overall group rating was found to be 9. For the same compound, in the experiment with sweet taste [4] (setting [9]), the taste comments entry was “enhanced sweetness, more rounded, no bitter, very strong sweet profile” and the blend rating stood at 9. In the experiment on sweet taste [5] (setting [10]), the sweetness comments result was “sweetness had more impact than Sample A, but not as intense as Sample B” and the sweetness profile rating turned out to be 6. For the same compound, the taste description result in the experiment on sweet taste [6] is “mouth coating, intense sweet, no bitter notes, and had a fast sweetness onset”. Moreover, in the experiment with sweet taste [7], the profile description entry was “sweeter, long lasting sweetness and mouthwatering”; the sweetness intensity rating is 8.

In the case of `CC1CCC(NC(=O)c2c(F)c(F)c(F)c(F)c2F)CC1` (stereo not shown) [N-(4-methylcyclohexyl)-2,3,4,5,6-pentafluoro-benzamide], the taste result in the experiment with sweet taste [2] is reported as “bitter”.

Take `O=C(N[C@@H]1CCCc2ccccc21)c1ccoc1` [N-[(1R)-1,2,3,4-tetrahydro-1-naphthalenyl]-3-furancarboxamide, reference compound]: the Other taste attributes result with sweet taste [1] is recorded as “Clean”.

With `CN(C(=O)c1c(F)c(F)c(F)c(F)c1F)C1CCCCC1` [N-cyclohexyl-2,3,4,5,6-pentafluoro-N-methyl-benzamide], the taste result in the experiment on sweet taste [2] is listed as “tasteless”.

Consider `OC[C@H]1O[C@H](O[C@]2(CCl)O[C@H](CCl)[C@@H](O)[C@@H]2O)[C@H](O)[C@@H](O)[C@H]1Cl` [Sucralose], for which, in the experiment on sweet taste [4] (Sucralose at 60 ppm alone in plain water), the taste comments result is on record as “sweet onset, mouthwatering, sweetness lingers”.

Regarding `OC[C@H]1O[C@@](CO)(O[C@H]2O[C@H](CO)[C@@H](O)[C@H](O)[C@H]2O)[C@@H](O)[C@@H]1O` [Sucrose, reference compound], the taste description result with sweet taste [1] (4% sucrose in water) was “moderate sweetness and mouthfeel”; with sweet taste [1] (8% sucrose in water), “good level sweetness and excellent mouthfeel”.

The values are drawn from US20090047379A1, “Benzamide Compounds Useful as High Potency Sweet Taste Enhancers” (priority 2007, published 2009).
